Compound: CN(C)CC1=CC(=CC=C1)N=C(C2=CC=CC=C2)C3=C(NC4=C3C=CC(=C4)C(=O)N(C)C)O
Assay: relative viability (nuclei count vs DMSO), 5 days (fraction); higher = more cells survive
Procedure, shortened: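 For viability, nuclei in each treated well were divided by nuclei in vehicle wells and the median across plates was taken. Lung cancer cell lines in 1536-well plates were pinned with five library-drug doses (not always all listed) spaced by √10, cultured 5 days without medium change, and imaged at 4× after Hoechst staining, with plates passing only at control CV below 25% and at least one doubling.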

Cell Line | relative viability (0.08 µM) | relative viability (0.253 µM) | relative viability (0.8 µM) | relative viability (2.53 µM) | relative viability (8 µM)
201T | 0.983 | 1.02 | 0.997 | 0.947 | 0.901
A-427 | 1.02 | 1.07 | 0.974 | 0.963 | 0.98
ABC-1 | 1.1 | 1.05 | 0.971 | 0.891 | 0.864
BEN | 0.904 | 0.944 | 0.988 | 1 | 0.909
CAL-12T | 1.07 | 1.02 | 1.09 | 1.01 | 1.12
COR-L23 | 1.04 | 1.02 | 1.09 | 0.95 | 0.967
COR-L 105 | 1.04 | 1.03 | 0.926 | 0.928 | 0.787
Calu-6 | 1.1 | 1.05 | 1.01 | 0.986 | 0.977
ChaGo-K-1 | 0.948 | 0.993 | 1.02 | 0.947 | 1.01
EBC-1 | 1.02 | 0.958 | 1.08 | 0.985 | 1.1
EKVX | 0.981 | 0.919 | 0.819 | 1.05 | 0.996
EMC-BAC-2 | 1.02 | 1.06 | 1.03 | 0.939 | 1.08
EPLC-272H | 0.837 | 1 | 0.838 | 1.15 | 0.792
H3255 | 0.942 | 1.02 | 0.889 | 1.02 | 1.04
HARA | 0.953 | 0.946 | 0.742 | 0.986 | 1.08
HCC-15 | 0.996 | 0.995 | 1.03 | 1.05 | 1.09
HCC-44 | 1.08 | 0.987 | 1.03 | 0.949 | 1.05
HCC-78 | 0.993 | 0.95 | 0.967 | 1.02 | 0.958
HCC-366 | 1 | 0.985 | 1.01 | 0.978 | 0.955
HCC-827 | 0.999 | 1.03 | 1.06 | 0.953 | 0.916
HOP-62 | 1.05 | 0.965 | 1.04 | 0.981 | 0.97
IA-LM | 0.961 | 0.871 | 1.03 | 1.07 | 1.13
LC-2-ad | 1.01 | 1.04 | 1.08 | 0.925 | 0.84
LCLC-97TM1 | 0.907 | 1.04 | 1.02 | 1.13 | 1.13
LCLC-103H | 0.951 | 1.07 | 0.931 | 0.986 | 0.915
LK-2 | 1.13 | 1.04 | 0.909 | 0.991 | 0.853
LOU-NH91 | 0.954 | 1.03 | 0.789 | 0.96 | 0.913

Cell Line | relative viability (0.08 µM) | relative viability (0.253 µM) | relative viability (0.8 µM) | relative viability (2.53 µM) | relative viability (8 µM)
LU99A | 0.893 | 0.934 | 0.966 | 0.885 | 0.87
LXF-289 | 1.01 | 0.955 | 0.993 | 0.971 | 0.955
NCI-H23 | 1.09 | 1.03 | 1.06 | 1.02 | 0.815
NCI-H322M | 0.823 | 0.996 | 0.794 | 0.75 | 0.651
NCI-H358 | 0.94 | 0.789 | 0.705 | 0.879 | 0.784
NCI-H441 | 1.03 | 1.14 | 1.2 | 0.984 | 0.923
NCI-H460 | 0.981 | 1.04 | 1.04 | 0.933 | 1.01
NCI-H520 | 0.879 | 0.958 | 1.01 | 0.932 | 0.881
NCI-H522 | 1.1 | 1.01 | 0.829 | 0.958 | 0.913
NCI-H596 | 1.05 | 0.973 | 0.975 | 1.01 | 0.882
NCI-H647 | 0.997 | 0.864 | 0.888 | 0.909 | 0.78
NCI-H650 | 0.941 | 1.02 | 1.1 | 0.963 | 0.782
NCI-H661 | 0.975 | 1.05 | 1.01 | 0.958 | 0.941
NCI-H727 | 0.921 | 0.962 | 0.891 | 1.02 | 0.821
NCI-H838 | 1 | 0.976 | 0.977 | 0.902 | 0.785
NCI-H1299 | 0.998 | 1.03 | 1.01 | 1.01 | 0.977
NCI-H1355 | 1.03 | 0.992 | 0.836 | 0.993 | 0.979
NCI-H1395 | 0.87 | 0.976 | 1.04 | 0.774 | 0.875
NCI-H1437 | 1.05 | 0.977 | 1.04 | 1.02 | 1.05
NCI-H1563 | 1.02 | 1 | 0.905 | 0.861 | 0.783
NCI-H1648 | 0.851 | 0.657 | 0.749 | 0.884 | 0.915
NCI-H1650 | 0.967 | 0.961 | 0.982 | 1.04 | 0.909
NCI-H1651 | 1.01 | 0.954 | 1.04 | 0.897 | 0.978
NCI-H1666 | 1.07 | 0.994 | 0.959 | 1.11 | 1.12
NCI-H1703 | 0.989 | 0.847 | 1.11 | 0.63 | 0.349
NCI-H1734 | 1.1 | 1.05 | 1.04 | 0.962 | 0.824
NCI-H1755 | 0.981 | 0.967 | 0.971 | 0.983 | 0.987

Cell Line | relative viability (0.08 µM) | relative viability (0.253 µM) | relative viability (0.8 µM) | relative viability (2.53 µM) | relative viability (8 µM)
NCI-H1792 | 0.997 | 1.05 | 0.881 | 0.949 | 0.8
NCI-H1793 | 1.01 | 1.07 | 0.773 | 1.05 | 0.839
NCI-H1915 | 1.01 | 0.986 | 1.07 | 1.01 | 0.992
NCI-H1944 | 0.956 | 1.03 | 0.892 | 0.903 | 0.823
NCI-H1975 | 0.955 | 0.915 | 0.85 | 0.926 | 0.789
NCI-H1993 | 0.979 | 0.98 | 0.717 | 0.944 | 1.07
NCI-H2009 | 1.03 | 0.987 | 1.1 | 0.973 | 0.97
NCI-H2023 | 0.966 | 0.905 | 1.01 | 0.789 | 0.79
NCI-H2085 | 1.02 | 1.02 | 0.98 | 1.02 | 1.02
NCI-H2087 | 0.915 | 1.07 | 1.04 | 0.978 | 0.956
NCI-H2126 | 1.01 | 0.988 | 0.941 | 1.03 | 0.903
NCI-H2170 | 0.952 | 0.981 | 0.812 | 1.02 | 0.915
NCI-H2228 | 1.04 | 1.06 | 0.874 | 0.879 | 0.789
NCI-H2342 | 1.02 | 1.04 | 0.904 | 1.15 | 1.02
NCI-H2347 | 0.996 | 1.08 | 0.971 | 1 | 1.09
NCI-H2405 | 1.02 | 1.01 | 1.01 | 0.902 | 0.979
NCI-H3122 | 0.948 | 0.94 | 1.08 | 1.01 | 1.02
PC-3 [JPC-3] | 1.04 | 1.05 | 0.866 | 1.06 | 1.09
PC-14 | 1.12 | 0.951 | 1.08 | 0.988 | 1.02
RERF-LC-KJ | 1.08 | 0.992 | 0.907 | 0.982 | 0.996
SK-LU-1 | 1.04 | 1.02 | 0.996 | 0.993 | 0.866
SK-MES-1 | 1 | 0.993 | 0.934 | 0.938 | 0.914
SW 900 | 0.997 | 0.886 | 0.983 | 0.934 | 0.937
SW 1573 | 0.983 | 1.08 | 0.978 | 0.935 | 0.853
UMC-11 | 1.05 | 0.934 | 0.98 | 0.924 | 0.957

Reference: the supplement of paper PMC10307832
